Test results: patent US6825230B2, “Spiro and dispiro 1,2,4-trixolane antimalarials” (Medicines for Malaria Venture MMV, priority 2002, dated 2004)

Tested on: ANKA strain of P. berghei
Test: Single dose STI in vivo screen in infected mice
Design: species or system Plasmodium berghei
Details: for Survival (days) 3 mg/kg SSV po / Activity (%) 3 mg/kg SSV po: single 3 mg/kg po in SSV; for Survival (days) 10 mg/kg SSV po: single 10 mg/kg po in SSV; for Survival (days) 10 mg/kg SSV po / Survival (days) 10 mg/kg po / Survival (days) 10 mg/kg sc: untreated 6-7 days; for Survival (days) 10 mg/kg po: single 10 mg/kg po in 3% ethanol and 7% Tween 80; for Activity (%) 10 mg/kg po: single 10 mg/kg po in 3% ethanol and 7% Tween 80 on day 1 post-infection; for Survival (days) 10 mg/kg sc: single 10 mg/kg sc in 3% ethanol and 7% Tween 80; for Activity (%) 10 mg/kg sc: single 10 mg/kg sc in 3% ethanol and 7% Tween 80 on day 1 post-infection
Procedure: In the single dose STI in vivo screen, Moro SPF or NMRI mice infected with the ANKA strain of P. berghei (groups of three mice) were treated on day one post-infection with trioxolanes dissolved or suspended in 3% ethanol and 7% Tween 80. […] SSV consists of 0.5% w/v CMC, 0.5% v/v benzyl alcohol, 0.4% v/v Tween 80, and 0.9% w/v sodium chloride in water. Antimalarial activity was measured by percent reduction in parasitemia on day three post-infection and survival times compared to an untreated control group. Survival to day 30 post-infection is considered to be a cure. […] Other factors influencing antimalarial activity include the stability of carbon radicals formed by β-scission subsequent to the initial electron transfer to the peroxide bond and the influence of steric effects remote from the peroxide bond on the interactions between carbon radicals and potential drug targets.
Moro NMRI male mice (Fu Albino specific pathogen free) weighing 18±2 g were infected intravenously (i.v.) with 2×10^7 P. berghei ANKA strain-infected erythrocytes from donor mice on day 0 of the experiment. From donor mice with circa 30% parasitemia, heparinized blood was taken and diluted in physiological saline to 10^8 parasitized erythrocytes per ml. An aliquot (0.2 ml) of this suspension was injected i.v. into experimental and control groups of mice. […] Throughout the experiments, mice were kept in groups of three or five animals in Makrolon type II cages in an air-conditioned animal room at 22 to 23° C.
They were administered per os (p.o.) in a total volume of 0.01 ml per gram of mouse. The activity of the compound was determined by a variety of methods outlined in subsequent sections. Survival time was also recorded, and survival to day 30 post-infection was considered to be a cure.

[1] = percent reduction in parasitemia on day 3
[2] = single 10 mg/kg po in standard suspending vehicle (SSV) on day 1 post-infection, percent reduction in parasitemia on day 3

| Structure (SMILES) | Survival (days) 3 mg/kg SSV po | Activity (%) 3 mg/kg SSV po [1] [%] | Survival (days) 10 mg/kg SSV po | Activity (%) 10 mg/kg SSV po [2] | Survival (days) 10 mg/kg po [days] | Activity (%) 10 mg/kg po [1] [%] | Survival (days) 10 mg/kg sc [days] | Activity (%) 10 mg/kg sc [1] [%] | Activity (%) 10 mg/kg SSV po (po, 10 mg/kg) |
| --- | --- | --- | --- | --- | --- | --- | --- | --- | --- |
| O=C(NC[C@H]1CC[C@]2(CC1)OO[C@]1(O2)C2CC3CC(C2)CC1C3)c1ccccn1 [OZ304] | 8.8 days | 61 | 8.2 days | 98% | – | – | – | – | – |
| O=CN1CCN(C[C@H]2CC[C@]3(CC2)OO[C@]2(O3)C3CC4CC(C3)CC2C4)CC1 [OZ303] | 7.6 days | 69 | 8.6 days | – | – | – | – | – | – |
| Cc1ccc(NC(=O)N2CCC3(CC2)OOC2(O3)C3CC4CC(C3)CC2C4)cc1 (stereo not shown) [OZ142] | – | – | 6.3 days | 2% | 6.0 | 0 | 14.3 | 99.98 | – |
| O=C(Nc1ccccc1)N1CCC2(CC1)OOC1(O2)C2CC3CC(C2)CC1C3 (stereo not shown) [OZ102, Adamantane-2-spiro-3′-8′-(phenylaminocarbonyl)-1′,2′,4′-trioxa-8′-azaspiro[4.5]decane] | – | – | 6.7 days | 73% | 7.0 | 92 | 19.7 | 99.97 | – |
| O=C(CNC(=O)c1cccnc1)NC[C@H]1CC[C@]2(CC1)OO[C@]1(O2)C2CC3CC(C2)CC1C3 [OZ316] | 8.0 days | 7 | 10.0 days | 69% | – | – | – | – | – |
| Cn1ccnc1S(=O)(=O)C[C@H]1CC[C@]2(CC1)OO[C@]1(O2)C2CC3CC(C2)CC1C3 [OZ310] | 8.2 days | 38 | 7.8 days | 81% | – | – | – | – | – |
| Nc1ncccc1C(=O)NC[C@H]1CC[C@]2(CC1)OOC1(O2)C2CC3CC(C2)CC1C3 (stereo partly shown) [OZ284] | 7.8 days | 61 | 9.0 days | 97% | – | – | – | – | – |
| N[C@H]1CCN(C(=O)C[C@H]2CC[C@]3(CC2)OO[C@]2(O3)C3CC4CC(C3)CC2C4)C1 [OZ338] | 8.0 days | – | 9.8 days | – | – | – | – | – | – |
| CCOC(=O)CNC[C@H]1CC[C@]2(CC1)OO[C@]1(O2)C2CC3CC(C2)CC1C3 [OZ290] | 7.0 days | 95 | 9.0 days | 99.64% | – | – | – | – | – |
| N=C(N)NC(=O)C[C@H]1CC[C@]2(CC1)OO[C@]1(O2)C2CC3CC(C2)CC1C3 [OZ341] | 7.0 days | 32 | 8.0 days | 97% | – | – | – | – | – |
| c1cnc(OC[C@H]2CC[C@]3(CC2)OO[C@]2(O3)C3CC4CC(C3)CC2C4)nc1 [OZ325] | 6.2 days | 30 | 8.8 days | – | – | – | – | – | – |
| NCCC(=O)NC[C@H]1CC[C@]2(CC1)OO[C@]1(O2)C2CC3CC(C2)CC1C3 [OZ336] | 9.6 days | 98 | 9.2 days | – | – | – | – | – | – |
| NC(=O)c1cn(C[C@H]2CC[C@]3(CC2)OO[C@]2(O3)C3CC4CC(C3)CC2C4)cn1 [OZ320] | – | 92 | – | – | – | – | – | – | – |
| O=C(NC[C@H]1CC[C@]2(CC1)OOC1(O2)C2CC3CC(C2)CC1C3)c1ccccc1O (stereo partly shown) [OZ280] | – | – | 5.7ND days | – | – | – | – | – | 0/ND % |
| OC1(Cc2nc3ccccc3s2)CCC2(CC1)OOC1(O2)C2CC3CC(C2)CC1C3 (stereo not shown) [OZ276] | – | – | 7.3/ND days | 17/ND % | – | – | – | – | – |
| CCOC(=O)CCNCC1CCC2(CC1)OOC1(O2)C2CC3CC(C2)CC1C3.Cc1ccc(S(=O)(=O)O)cc1 (stereo not shown) [OZ318] | 7.6 days | 29 | 12.4 days | 88% | – | – | – | – | – |
| NC(=O)C1CCN(C(=O)C[C@H]2CC[C@]3(CC2)OO[C@]2(O3)C3CC4CC(C3)CC2C4)CC1 [OZ311] | 7.0 days | 40 | 8.6 days | 80% | – | – | – | – | – |
| Nc1nccnc1C(=O)NC[C@H]1CC[C@]2(CC1)OO[C@]1(O2)C2CC3CC(C2)CC1C3 [OZ330] | 7.2 days | 82 | 12.2 days | – | – | – | – | – | – |
| Cn1nnnc1S(=O)(=O)C[C@H]1CC[C@]2(CC1)OO[C@]1(O2)C2CC3CC(C2)CC1C3 [OZ332] | 6.0/6.0 days | 0 | 6.0/6.0 days | 8% | – | – | – | – | – |
| CS(=O)(=O)N(CC(N)=O)C[C@H]1CC[C@]2(CC1)OO[C@]1(O2)C2CC3CC(C2)CC1C3 [OZ308] | 6.6 days | 30 | 7.8 days | 86% | – | – | – | – | – |
| Cn1nnnc1SC[C@H]1CC[C@]2(CC1)OO[C@]1(O2)C2CC3CC(C2)CC1C3 [OZ331] | 7.0 days | 66 | 9.0 days | – | – | – | – | – | – |
| O=S(=O)(C[C@H]1CC[C@]2(CC1)OO[C@]1(O2)C2CC3CC(C2)CC1C3)c1cccc[n+]1[O-] [OZ324] | 7.4 days | 26 | 9.4 days | 60% | – | – | – | – | – |
| NS(=O)(=O)c1ccc(NC[C@H]2CC[C@]3(CC2)OO[C@]2(O3)C3CC4CC(C3)CC2C4)cc1 [OZ298] | 9.0 days | 98 | 9.4 days | – | – | – | – | – | – |
| O=C(C[C@H]1CC[C@]2(CC1)OO[C@]1(O2)C2CC3CC(C2)CC1C3)N1CCN(c2ncccn2)CC1 [OZ314] | 6.6/6.6 days | 11 | 6.6/6.6 days | 13% | – | – | – | – | – |
| CCNC(=O)NC[C@H]1CC[C@]2(CC1)OO[C@]1(O2)C2CC3CC(C2)CC1C3 [OZ291] | 6.8 days | 34 | 8.0 days | 98% | – | – | – | – | – |
| O=C(NC[C@H]1CC[C@]2(CC1)OOC1(O2)C2CC3CC(C2)CC1C3)c1ccc(O)nc1 (stereo partly shown) [OZ282] | 7.2 days | 53 | 8.3 days | 98.5% | – | – | – | – | – |
| O=C(COc1ccc(Cl)cc1)N1CCC2(CC1)OOC1(O2)C2CC3CC(C2)CC1C3 (stereo not shown) [OZ101, Adamantane-2-spiro-3′-8′-(4′-chlorophenoxyacetyl)-1′,2′,4′-trioxa-8′-azaspiro[4.5]decane] | – | – | 5.3 days | 0% | 6.3 | 44 | 13 | 99.97 | – |
| c1cncc(NC[C@H]2CC[C@]3(CC2)OO[C@]2(O3)C3CC4CC(C3)CC2C4)c1 [OZ293] | 7.4 days | 77 | 8.8 days | 99.58% | – | – | – | – | – |
